Results from paper PMC3155816 (Journal of medicinal chemistry, 2011).
Converted amounts (≈) assume the structure as drawn. “And” between values parts separate entries of the source, which are not always exact repeats. Equal entries are not always repeated.

Assays:
[1] = tested on: Vaccinia virus (WR strain); assay: microbe, parasite or virus in culture; assay type: cell-based; settings: Orthopoxvirus vaccinia, BSC-1, read-out: Plaque Reduction EC50
[2] = Solubility in PBS by chemiluminescence of total nitrogen; assay type: physicochemical
vaccinia virus D4 = vaccinia virus D4 (Vaccinia virus, UniProt P04303); assay type: binding
[3] = molecular target: vaccinia E9 DNA polymerase with A20 and D4 (processivity complex) (Vaccinia virus, UniProt P04303); assay: biochemical
[4] = Cytotoxicity by LDH release; assay type: cell-based; settings: African green monkey, BSC-1 cells

SMILES | EC50 [1] [µM] | solubility [2] | further results
Cc1cc2n(n1)C(c1cc(C(C)(C)C)c(O)cc1O)Nc1ccccc1-2 (stereo not shown) [Compound 15, 4-tert-butyl-6-{2-methyl-5H,6H-pyrazolo[1,5-c]quinazolin-5-yl}benzene-1,3-diol] | 23.3 | 54.7 µM (≈ 19.1 µg/mL) | –
O=C1c2ccccc2-c2onc3c(NCCO)cc(NC4CCCCC4)c1c23 [Compound 9, 10-(cyclohexylamino)-12-[(2-hydroxyethyl)amino]-15-oxa-14-azatetracyclohexadeca-1(16),2,4,6,9,11,13-heptaen-8-one] | 8.1 | 1.4 µg/mL and 3.6 µM | Tm (vaccinia virus D4): 51.4 ± 9.1 °C; ΔTm (vaccinia virus D4): 13.1 °C; IC50 [3]: 34.1 µM; CC50 at 20 h [4]: 127 µM
Oc1ccc(NCc2ccccc2OCc2ccccc2)cc1 [Compound 10, 4-({[2-(benzyloxy)phenyl]methyl}amino)phenol] | 9.8 | 3.5 µM (≈ 1.07 µg/mL) | –
COc1ccc(Nc2nc(Nc3ccc(OC)cc3OC)nc(N3CCOCC3)n2)c(OC)c1 [Compound 12] | ≥ 200 | – | –
COc1ccc(C)cc1N(CC(=O)N1CCC(C)CC1)S(=O)(=O)c1ccc(C)cc1 [Compound 26] | ≥ 200 | – | –
COc1cc(-c2nc(-c3ccccc3)c(-c3ccc(Br)cc3)[nH]2)cc(OC)c1O [Compound 27, 4-[5-(4-bromophenyl)-4-phenyl-1H-imidazol-2-yl]-2,6-dimethoxyphenol] | 22.4 | 3.2 µM (≈ 1.44 µg/mL) | –
Cc1ccc2oc(-c3ccc(Cl)cc3)c(O)c(=O)c2c1 [Compound 5] | ≥ 200 | – | –
Cn1c(=O)n(C)c2cc(NS(=O)(=O)c3ccc(C(C)(C)C)cc3)c(NCc3ccccc3)cc21 [Compound 14, N-[6-(benzylamino)-1,3-dimethyl-2-oxo-2,3-dihydro-1H-1,3-benzodiazol-5-yl]-4-tert-butylbenzene-1-sulfonamide] | – | 1.9 µM (≈ 0.909 µg/mL) | –
